Patent EP0407582A1, “DERIVATIVES OF TRICHLOROPHOSPHAS[…] INSECTICIDAL, VIRICIDAL, HEMATOCIDAL, FUNGICIDAL AND OVOCIDAL PREPARATIONS BASED ON THEM” (priority 1989, dated 1990)
Where two headings read alike, the source gives them in different places.

Legend:
[1] = test system: domestic flies; assay: Insecticidal activity, large-scale test in living and industrial premises; type: in vivo; details: 0.25% solution with 5% glucose solution, 2-3 dishes per 20 m2; 72 hours
Description: The large-scale tests of the activity of the insecticidal composition, according to the invention, was conducted on domestic flies in living and industrial premises. Petri dishes containing a 0.25% aqueous solution of the insecticide, according to the invention, added with a 5% glucose solution, were put at a rate of 2-3 dishes per 20 m2. The .activity of the composition of the invention was estimated by a direct count of dead insects in 72 hours or by using the adhesive tapes, counting the number of flies on the tape prior and after carrying out the test.

[2] = test system: domestic flies; assay: Insecticidal activity, laboratory test in gauze boxes; type: in vivo; details: 0.25% solution in 5% aqueous glucose solution; death rate estimated in 48 - 72 hours
Description: An insecticidal composition based thereon, which was a 0.25% solution of this compound in a 5% aqueous glucose solution, was prepared. The laboratory and large-scale tests of the activity of an insecticidal composition of the invention was conducted on domestic flies. for laboratory tests into the gauze-made boxes (10x10 cm, 6 boxes), there were placed 6-7-day flies of both sexes by 50 individuals per each box. Into 5 boxes there were placed Petri dishes containing the insecticidal composition of the invention. The death rate of flies was estimated-in 48 - 72 hours. A Petri dish containing a 5% aqueous solution of glucose was placed into the control box. The insecticidal activity of the composition, according to the invention, was tested in comparison with a known insecticidal composition containing 0,0-dimethyl-/1-hydroay-2,2-trichloroethyl/phosphonate.

[3] = Solubility in water and organic solvents; type: physicochemical; details: qualitative, solvents named
[4] = test system: hepatitis B virus
[5] = test system: influenza A virus
[6] = test system: Rhyzoctonia violacea; assay: Fungicidal activity, field test on sprayed potato plots; type: in vivo
[7] = test system: Verturia inaequalis; assay: as above; type: in vivo
Description: (§1) In the field conditions potato plantations of 5 m^2 in size affected by Fusarium oxysporem, Fusarium moniliforme, Betrytis cinerea, Fusarium culmorum, Diplodia Verturia inaequalis, Rhyzoctonia aderholdii were sprayed by a fungicidal composition of the. invention.
(§2) For comparison, a similar spraying of the affected potato-plots was carried out using a. known fungicidal compositions.

[8] = test system: Fusarium culmorum; assay: as above; type: in vivo
Description: as §1, §2

[9] = test system: Rhyzoctonia aderholdii; assay: as above; type: in vivo
Description: as §1, §2

[10] = test system: Fusarium oxysporum; assay: as above; type: in vivo
Description: as §1, §2

[11] = test system: Fusarium moniliforme; assay: as above; type: in vivo
Description: as §1, §2

[12] = test system: Diplodia zeae; assay: as above; type: in vivo
Description: as §1, §2

[13] = test system: Botrytis cinerea; assay: as above; type: in vivo
Description: as §1, §2

[14] = test system: Verticillium albo-atrum; assay: as above; type: in vivo
[15] = test system: Verticillium albo-atrum; assay: Fungicidal activity, laboratory test on potato-dextrose agar; type: cell-based; details: 0.01 % by mass of active principle
Description: (§3) Based on the compound, a fungicidal composition was prepared in the form of a 0.01% solution thereof in distilled water. A fungicidal activity of the compound, according to the invention, was tested for inhibition of vegetative fungi growth such as Fusarium oxyporum, Fusarium moniliforme, Botrytis cinerea, Fusarium culmorum, Diplodia zeae, Rhyzoctonia violacea, Verticillium alboartrum, Verturia inaequalis, Rhyzoctonia aderholdii affecting potato, sugar beet, cotton seeds. The tests were conducted either in laboratory or in field conditions. For tests, the composition of the invention containing-0.01 % by mass of an active principle was introduced into Petri dishes with a nutrient medium, specifically, potato-dextrose agar. The phytopathogenic fungi mycelium was plated on the Petri dishes with this agar culture. The phytopathogenic fungi were plated on control dishes with agar culture without adding the composition of the invention. The fungicidal action of the composition, according to the invention, was tested in comparison with the known fungicidal composition based on 2,3-dichloronaphthoquinone-1,4 (phygon), zinc N,N'-ethylene-bis-(dithiocarbamate) (zineb) and thiuram.

[16] = test system: Rhyzoctonia violacea; assay: as above; type: cell-based; details: 0.01 % by mass of active principle
Description: as §3

[17] = test system: Verturia inaequalis; assay: as above; type: cell-based; details: 0.01 % by mass of active principle
Description: as §3

[18] = test system: Fusarium culmorum; assay: as above; type: cell-based; details: 0.01 % by mass of active principle
Description: as §3

[19] = test system: Rhyzoctonia aderholdii; assay: as above; type: cell-based; details: 0.01 % by mass of active principle
Description: as §3

[20] = test system: Fusarium oxysporum; assay: as above; type: cell-based; details: 0.01 % by mass of active principle
Description: as §3

[21] = test system: Fusarium moniliforme; assay: as above; type: cell-based; details: 0.01 % by mass of active principle
Description: as §3

[22] = test system: Diplodia zeae; assay: as above; type: cell-based; details: 0.01 % by mass of active principle
Description: as §3

[23] = test system: Botrytis cinerea; assay: as above; type: cell-based; details: 0.01 % by mass of active principle
Description: as §3

[24] = test system: hepatitis B virus; assay: Virucidal activity, suspension method under protein loading, counter-current immunoelectrophoresis
[25] = test system: poliomyelitis virus; assay: microbe, parasite or virus in culture; type: cell-based, poliomyelitis-II virus
[26] = test system: influenza A virus; assay: microbe, parasite or virus in culture; set-up: species or system strain of influenza A1 virus

Row | Structure (SMILES) | solubility [3] | Inhibition of colony growth of phytopatogenic,fungi,% Rhyzoctonia violacea field [6] [%] | Inhibition of colony growth of phytopathogenic fungi,% Verturia inaequalis field [7] [%] | Inhibition of colony growth of phytopatogenic,fungi,% Fusarium culmorum field [8] [%] | Inhibition of colony growth of phytopathogenic fungi,% Rhyzoctonia aderholdii field [9] [%] | Inhibition of colony growth of phyto-pathogenic fungi, % Fusarium oxysporum field [10] [%] | Inhibition of colony growth of phyto-pathogenic fungi, % Fusarium moniliforme field [11] [%] | Inhibition of colony growth of phytopatogenic,fungi,% Diplidia zeae field [12] [%] | Inhibition of colony growth of phyto-pathogenic fungi, % Botrytis cinerea field [13] [%] | Inhibition of colony growth of phytopathogenic fungi,% Verticillium albo-atrum field [14] [%] | Inhibition of colony growth of phytopathogenic fungi,% Verticillium albo-atrum laboratory [15] [%] | Inhibition of colony growth of phytopatogenic,fungi,% Rhyzoctonia violacea laboratory [16] [%] | Inhibition of colony growth of phytopathogenic fungi,% Verturia inaequalis laboratory [17] [%] | Inhibition of colony growth of phytopatogenic,fungi,% Fusarium culmorum laboratory [18] [%] | Inhibition of colony growth of phytopathogenic fungi,% Rhyzoctonia aderholdii laboratory [19] [%] | Inhibition of colony growth of phyto-pathogenic fungi, % Fusarium oxysporum laboratory [20] [%] | Inhibition of colony growth of phyto-pathogenic fungi, % Fusarium moniliforme laboratory [21] [%] | Inhibition of colony growth of phytopatogenic,fungi,% Diplidia zeae laboratory [22] [%] | Inhibition of colony growth of phyto-pathogenic fungi, % Botrytis cinerea laboratory [23] [%] | other results
1 | O=C(N=P(OCCCl)(OCCCl)OCCCl)c1ccccc1 [Example 1, tris-(2-chloroethoxy)phosphazobenzoyl] | soluble in water, alcohols, toluene | – | – | – | – | – | – | – | – | – | – | – | – | – | – | – | – | – | – | Death of flies, % Tests large-scale [1]: 85%; Death of flies, % Tests laboratory [2]: 86%
2 | CC(C)(OP(=NC(=O)c1ccccc1)(OC(C)(C)C(Cl)(Cl)Cl)OC(C)(C)C(Cl)(Cl)Cl)C(Cl)(Cl)Cl [Example 2, tris-(dimethyl-2,2,2-trichloroethoxy)phosphazobenzoyl] | soluble in water, alcohols, acetone, benzene, toluene | – | – | – | – | – | – | – | – | – | – | – | – | – | – | – | – | – | – | Death of flies, % Tests large-scale [1]: 88%; Death of flies, % Tests laboratory [2]: 90%
3 | O=C(N=P(OC[C@@H](NC(=O)C(Cl)Cl)[C@H](O)c1ccc([N+](=O)[O-])cc1)(OC[C@@H](NC(=O)C(Cl)Cl)[C@H](O)c1ccc([N+](=O)[O-])cc1)OC[C@@H](NC(=O)C(Cl)Cl)[C@H](O)c1ccc([N+](=O)[O-])cc1)c1ccccc1 [Example 4, tris-d/-/-threo-3-para nitrophenyl--2-dichloroacetamido-3-hydroxypropoxy/phosphazobenzoyl] | – | – | – | – | – | – | – | – | – | – | – | – | – | – | – | – | – | – | – | inhibition of viral antigen titers, Hepatitis B virus ([4]; 1% solution in 0.85% sodium chloride, exposure 5, 30, 60 minutes): 100; inhibition of viral antigen titers, Influenza A virus ([5]; 1% solution): 100
4 | O=C(N=P(Nc1ccc(Cl)cc1[N+](=O)[O-])(Nc1ccc(Cl)cc1[N+](=O)[O-])Nc1ccc(Cl)cc1[N+](=O)[O-])c1ccc(Br)cc1 [Example 6, tris--(para-chloro -ortho-nitroanilido)phosphazo-para-bromobenzoyl] | soluble in water, acetone, alcohols, benzene | 100 | 100 | 69 | 100 | 100 | 100 | 100 | 100 | 100 | 100 | 100 | 100 | 70 | 100 | 100 | 100 | 100 | 100 | –
5 | O=C1C(Cl)=C(Cl)C(=O)c2ccccc21 [phygon, 2,3-dichloronaphthoquinone-1,4] | – | 33 | 61 | 45 | 55 | 30 | 32 | 81 | 32 | 66 | 63 | 34 | 58 | 57 | 54 | 35 | 35 | 71 | 38 | –
6 | O=S(=O)(NCl)c1ccccc1.[Na] [sodium-N-chloro-benzene sulf-amide, sodium N-chlorobenzene sulphonamide] | – | – | – | – | – | – | – | – | – | – | – | – | – | – | – | – | – | – | – | inhibition of viral antigen titers, Hepatitis B virus [4]: 50; inhibition of viral antigen titers, Influenza A virus [5]: 50; killing at 1 % ([24]; 0.25 h, read-out: Death of viruses (%) under exposure, Hepatitis B, 15 min): 0%; killing at 1 % ([24]; 0.5 h, read-out: Death of viruses (%) under exposure, Hepatitis B, 30 min): 12.5%; killing at 1 % ([24]; 1 h, read-out: Death of viruses (%) under exposure, Hepatitis B, 60 min): 25%; killing at 1 % ([25]; 10 min, read-out: Death of viruses (%) under exposure, Poliomyelitis, 10 min): 0%; killing at 1 % ([25]; 0.5 h, read-out: Death of viruses (%) under exposure, Poliomyelitis, 30 min): 12.5%; killing at 1 % ([25]; 1 h, read-out: Death of viruses (%) under exposure, Poliomyelitis, 60 min): 25%; killing at 1 % ([26]; 0.25 h, read-out: Death of viruses (%) under exposure, Influenza A, 15 min): 0%; killing at 1 % ([26]; 0.5 h, read-out: Death of viruses (%) under exposure, Influenza A, 30 min): 12.5%; killing at 1 % ([26]; 1 h, read-out: Death of viruses (%) under exposure, Influenza A, 60 min): 25%
7 | S=C([S-])NCCNC(=S)[S-].[Zn+2] [zineb, zinc N,N'-ethylene-bis-(dithiocarbamate)] | – | 100 | 98 | 54 | 100 | 59 | 62 | 100 | 98 | 78 | 80 | 100 | 100 | 57 | 100 | 58 | 60 | 100 | 100 | –
